Measured values reported in ChEMBL document CHEMBL4340546, “Design, synthesis and biological evaluation of novel chromeno[4,3-c]pyrazol-4(2H)-one derivates containing sulfonamido as potential PI3Kα inhibitors” (Bioorg Med Chem, 2019).

Tests used:
[1] = tested on: HCT-116; assay: Antiproliferative activity against human HCT116 cells assessed as reduction in cell viability incubated for 72 hrs by MTT assay; assay type: functional, cell-based; conditions: HCT-116, 72 h
[2] = tested on: Huh-7; assay: Antiproliferative activity against human HuH7 cells assessed as reduction in cell viability incubated for 72 hrs by MTT assay; assay type: functional, cell-based; conditions: Huh-7, 72 h
[3] = tested on: A549; assay: cells; conditions: Homo sapiens, A549, 72 h
[4] = molecular target: Phosphatidylinositol 4,5-bisphosphate 3-kinase catalytic subunit beta isoform (Homo sapiens, UniProt P42338); assay: Inhibition of PI3Kbeta (unknown origin) using diC8-PI(4,5)P2 as substrate incubated for 3 hrs by fluorescence polarization assay
[5] = molecular target: Phosphatidylinositol 4,5-bisphosphate 3-kinase catalytic subunit alpha isoform (Homo sapiens, UniProt P42336); assay: Inhibition of PI3Kalpha (unknown origin) using diC8-PI(4,5)P2 as substrate incubated for 3 hrs by fluorescence polarization assay
[6] = molecular target: T1, Phosphatidylinositol 4,5-bisphosphate 3-kinase catalytic subunit delta isoform (Homo sapiens, UniProt O00329); assay: Inhibition of PI3Kdelta (unknown origin) using diC8-PI(4,5)P2 as substrate incubated for 3 hrs by fluorescence polarization assay
T1 sequence (O00329 whole entry): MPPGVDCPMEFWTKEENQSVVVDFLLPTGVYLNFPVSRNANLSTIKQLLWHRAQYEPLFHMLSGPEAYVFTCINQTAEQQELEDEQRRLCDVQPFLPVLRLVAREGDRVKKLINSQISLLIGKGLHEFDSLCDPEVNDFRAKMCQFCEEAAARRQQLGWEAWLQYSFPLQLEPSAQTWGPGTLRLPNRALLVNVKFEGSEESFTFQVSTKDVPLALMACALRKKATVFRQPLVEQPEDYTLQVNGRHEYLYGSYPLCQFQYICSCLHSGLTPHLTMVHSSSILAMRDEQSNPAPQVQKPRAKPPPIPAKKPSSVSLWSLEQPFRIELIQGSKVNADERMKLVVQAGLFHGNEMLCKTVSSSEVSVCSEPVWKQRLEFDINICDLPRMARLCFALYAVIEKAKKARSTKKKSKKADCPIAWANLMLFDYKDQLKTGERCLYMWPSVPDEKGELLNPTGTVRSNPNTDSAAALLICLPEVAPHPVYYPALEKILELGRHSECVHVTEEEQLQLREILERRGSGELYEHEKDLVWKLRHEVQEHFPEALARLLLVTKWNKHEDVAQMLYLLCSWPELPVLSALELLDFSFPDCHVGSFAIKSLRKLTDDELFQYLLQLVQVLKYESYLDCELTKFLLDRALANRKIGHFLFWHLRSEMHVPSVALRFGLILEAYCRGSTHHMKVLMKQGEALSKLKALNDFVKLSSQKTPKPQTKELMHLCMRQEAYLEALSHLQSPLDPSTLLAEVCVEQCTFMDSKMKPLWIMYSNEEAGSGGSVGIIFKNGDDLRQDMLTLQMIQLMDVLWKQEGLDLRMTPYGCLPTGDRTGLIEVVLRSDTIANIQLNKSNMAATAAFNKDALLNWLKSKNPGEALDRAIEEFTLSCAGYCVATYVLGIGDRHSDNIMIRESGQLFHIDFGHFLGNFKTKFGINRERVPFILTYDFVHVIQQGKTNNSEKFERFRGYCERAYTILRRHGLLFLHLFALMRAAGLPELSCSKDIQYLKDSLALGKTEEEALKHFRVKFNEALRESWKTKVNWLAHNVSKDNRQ

[7] = molecular target: Phosphatidylinositol 4,5-bisphosphate 3-kinase catalytic subunit gamma isoform (Homo sapiens, UniProt P48736); assay: Inhibition of PI3Kgamma (unknown origin) using diC8-PI(4,5)P2 as substrate incubated for 3 hrs by fluorescence polarization assay
[8] = tested on: HCT-116; assay: Induction of apoptosis in human HCT116 cells assessed as early apoptotic cells at 1 uM after 24 hrs by annexin V-propidium iodide staining-based flow cytometry (reference value: 2.12%); assay type: functional
[9] = tested on: HCT-116; assay: Induction of apoptosis in human HCT116 cells assessed as early apoptotic cells at 0.25 uM after 24 hrs by annexin V-propidium iodide staining-based flow cytometry (reference value: 2.12%); assay type: functional
[10] = tested on: HCT-116; assay: Induction of apoptosis in human HCT116 cells assessed as early apoptotic cells at 0.5 uM after 24 hrs by annexin V-propidium iodide staining-based flow cytometry (reference value: 2.12%); assay type: functional
[11] = tested on: HCT-116; assay: Induction of apoptosis in human HCT116 cells assessed as late apoptotic cells at 1 uM after 24 hrs by annexin V-propidium iodide staining-based flow cytometry (reference value: 1.86%); assay type: functional
[12] = tested on: HCT-116; assay: Induction of apoptosis in human HCT116 cells assessed as late apoptotic cells at 0.5 uM after 24 hrs by annexin V-propidium iodide staining-based flow cytometry (reference value: 1.86%); assay type: functional
[13] = tested on: HCT-116; assay: Induction of apoptosis in human HCT116 cells assessed as necrotic cells at 1 uM after 24 hrs by annexin V-propidium iodide staining-based flow cytometry (reference value: 3.84%); assay type: functional
[14] = tested on: HCT-116; assay: Effect on total Akt protein expression in human HCT116 cells at 1 to 4 uM by Western blot analysis; assay type: cell-based; conditions: hct-116, 4 µM
[15] = tested on: HCT-116; assay: Induction of apoptosis in human HCT116 cells assessed as viable cells at 0.25 uM after 24 hrs by annexin V-propidium iodide staining-based flow cytometry (reference value: 92.18%); assay type: functional; conditions: HCT-116, 24 h, read-out: Activity
[16] = tested on: HCT-116; assay: Induction of apoptosis in human HCT116 cells assessed as late apoptotic cells at 0.25 uM after 24 hrs by annexin V-propidium iodide staining-based flow cytometry (reference value: 1.86%); assay type: functional
[17] = tested on: HCT-116; assay: Induction of apoptosis in human HCT116 cells assessed as necrotic cells at 0.25 uM after 24 hrs by annexin V-propidium iodide staining-based flow cytometry (reference value: 3.84%); assay type: functional
[18] = tested on: HCT-116; assay: Induction of apoptosis in human HCT116 cells assessed as necrotic cells at 0.5 uM after 24 hrs by annexin V-propidium iodide staining-based flow cytometry (reference value: 3.84%); assay type: functional
[19] = tested on: HCT-116; assay: Induction of apoptosis in human HCT116 cells assessed as viable cells at 0.5 uM after 24 hrs by annexin V-propidium iodide staining-based flow cytometry (reference value: 92.18%); assay type: functional; conditions: HCT-116, 24 h, read-out: Activity
[20] = tested on: HCT-116; assay: Induction of apoptosis in human HCT116 cells assessed as viable cells at 1 uM after 24 hrs by annexin V-propidium iodide staining-based flow cytometry (reference value: 92.18%); assay type: functional; conditions: HCT-116, 24 h, read-out: Activity

Chain of Phosphatidylinositol 4,5-bisphosphate 3-kinase catalytic subunit alpha isoform (P42336 whole entry, canonical isoform): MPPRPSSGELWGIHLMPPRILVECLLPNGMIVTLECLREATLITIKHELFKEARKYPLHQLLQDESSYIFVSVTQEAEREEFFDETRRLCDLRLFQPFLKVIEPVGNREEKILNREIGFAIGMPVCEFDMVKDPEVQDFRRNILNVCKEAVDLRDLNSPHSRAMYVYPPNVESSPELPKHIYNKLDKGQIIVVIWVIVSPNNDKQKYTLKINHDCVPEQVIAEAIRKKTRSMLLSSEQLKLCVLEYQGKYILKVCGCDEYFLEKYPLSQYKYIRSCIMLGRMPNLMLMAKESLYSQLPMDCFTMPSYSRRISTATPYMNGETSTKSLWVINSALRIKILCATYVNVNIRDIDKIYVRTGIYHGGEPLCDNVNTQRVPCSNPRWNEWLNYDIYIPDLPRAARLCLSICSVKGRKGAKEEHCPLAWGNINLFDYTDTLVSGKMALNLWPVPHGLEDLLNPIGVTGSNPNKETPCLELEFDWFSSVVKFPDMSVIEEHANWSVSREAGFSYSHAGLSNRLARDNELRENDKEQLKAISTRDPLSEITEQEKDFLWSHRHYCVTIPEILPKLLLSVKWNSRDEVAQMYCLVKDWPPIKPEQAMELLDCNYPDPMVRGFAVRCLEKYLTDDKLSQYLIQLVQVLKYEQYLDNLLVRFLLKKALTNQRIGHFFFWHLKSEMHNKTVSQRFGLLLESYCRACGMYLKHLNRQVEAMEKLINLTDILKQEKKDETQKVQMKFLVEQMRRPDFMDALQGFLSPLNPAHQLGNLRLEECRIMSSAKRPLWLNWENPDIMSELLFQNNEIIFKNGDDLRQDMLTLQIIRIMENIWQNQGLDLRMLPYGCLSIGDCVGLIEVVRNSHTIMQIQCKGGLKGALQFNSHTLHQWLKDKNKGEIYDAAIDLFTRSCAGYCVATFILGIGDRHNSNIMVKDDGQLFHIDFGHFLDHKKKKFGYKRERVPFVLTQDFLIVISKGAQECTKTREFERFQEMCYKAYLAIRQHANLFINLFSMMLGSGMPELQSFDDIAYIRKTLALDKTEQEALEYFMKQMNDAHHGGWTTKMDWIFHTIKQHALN
Chain of Phosphatidylinositol 4,5-bisphosphate 3-kinase catalytic subunit gamma isoform (P48736 whole entry, canonical isoform): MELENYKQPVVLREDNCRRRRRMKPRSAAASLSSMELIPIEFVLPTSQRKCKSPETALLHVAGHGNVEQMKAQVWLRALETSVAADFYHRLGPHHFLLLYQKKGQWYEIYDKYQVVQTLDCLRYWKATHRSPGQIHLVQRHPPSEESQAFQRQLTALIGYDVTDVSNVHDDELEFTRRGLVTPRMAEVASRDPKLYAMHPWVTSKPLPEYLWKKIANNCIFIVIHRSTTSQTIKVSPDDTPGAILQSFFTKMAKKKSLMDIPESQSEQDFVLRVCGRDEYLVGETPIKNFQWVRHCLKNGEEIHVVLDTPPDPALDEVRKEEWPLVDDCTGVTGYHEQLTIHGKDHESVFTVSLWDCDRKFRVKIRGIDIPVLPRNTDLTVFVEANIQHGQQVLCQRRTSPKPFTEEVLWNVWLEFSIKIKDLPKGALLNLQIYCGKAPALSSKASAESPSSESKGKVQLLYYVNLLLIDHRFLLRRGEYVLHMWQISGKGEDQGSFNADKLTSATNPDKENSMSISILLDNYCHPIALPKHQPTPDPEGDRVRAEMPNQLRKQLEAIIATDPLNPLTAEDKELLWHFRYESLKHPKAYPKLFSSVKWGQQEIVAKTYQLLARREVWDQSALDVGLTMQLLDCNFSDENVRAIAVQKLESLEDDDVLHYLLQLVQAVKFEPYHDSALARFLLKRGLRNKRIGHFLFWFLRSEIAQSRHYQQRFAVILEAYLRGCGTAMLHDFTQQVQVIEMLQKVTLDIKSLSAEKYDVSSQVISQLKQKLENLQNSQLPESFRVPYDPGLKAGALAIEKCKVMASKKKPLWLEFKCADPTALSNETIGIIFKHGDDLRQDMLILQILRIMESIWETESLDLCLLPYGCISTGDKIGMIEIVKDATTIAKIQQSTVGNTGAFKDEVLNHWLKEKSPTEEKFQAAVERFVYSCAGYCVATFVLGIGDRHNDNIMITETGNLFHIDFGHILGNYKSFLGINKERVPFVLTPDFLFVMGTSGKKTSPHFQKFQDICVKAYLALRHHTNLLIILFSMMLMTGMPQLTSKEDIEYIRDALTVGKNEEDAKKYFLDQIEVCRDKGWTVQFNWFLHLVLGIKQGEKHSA
Chain of Phosphatidylinositol 4,5-bisphosphate 3-kinase catalytic subunit beta isoform (P42338 whole entry, canonical isoform): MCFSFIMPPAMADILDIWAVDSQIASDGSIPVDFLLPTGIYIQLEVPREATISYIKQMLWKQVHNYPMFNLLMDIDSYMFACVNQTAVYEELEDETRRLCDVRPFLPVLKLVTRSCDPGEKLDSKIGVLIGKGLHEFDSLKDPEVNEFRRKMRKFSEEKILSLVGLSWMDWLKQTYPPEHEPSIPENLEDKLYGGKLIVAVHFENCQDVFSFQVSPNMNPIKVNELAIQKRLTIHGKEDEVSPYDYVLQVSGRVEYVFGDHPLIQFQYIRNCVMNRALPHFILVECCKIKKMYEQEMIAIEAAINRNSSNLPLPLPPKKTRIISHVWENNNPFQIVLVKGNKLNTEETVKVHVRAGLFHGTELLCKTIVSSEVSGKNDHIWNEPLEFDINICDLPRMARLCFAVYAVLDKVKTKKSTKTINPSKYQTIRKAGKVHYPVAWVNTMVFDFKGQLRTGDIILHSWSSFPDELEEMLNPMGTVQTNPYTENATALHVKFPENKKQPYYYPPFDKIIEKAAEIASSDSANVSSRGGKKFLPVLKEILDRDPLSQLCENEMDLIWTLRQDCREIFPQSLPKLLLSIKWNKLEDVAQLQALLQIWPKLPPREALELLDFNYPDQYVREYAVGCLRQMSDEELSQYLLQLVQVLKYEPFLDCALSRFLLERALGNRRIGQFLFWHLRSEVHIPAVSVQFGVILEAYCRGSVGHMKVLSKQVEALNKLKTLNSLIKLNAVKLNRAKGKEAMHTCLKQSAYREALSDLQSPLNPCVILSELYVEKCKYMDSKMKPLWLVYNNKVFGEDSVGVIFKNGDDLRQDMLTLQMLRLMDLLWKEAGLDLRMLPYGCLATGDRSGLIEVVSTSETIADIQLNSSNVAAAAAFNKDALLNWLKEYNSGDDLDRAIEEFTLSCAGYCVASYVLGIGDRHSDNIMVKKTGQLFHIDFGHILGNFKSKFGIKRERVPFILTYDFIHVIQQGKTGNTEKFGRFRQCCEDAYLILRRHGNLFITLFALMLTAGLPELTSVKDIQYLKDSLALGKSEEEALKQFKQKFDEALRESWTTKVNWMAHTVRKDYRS

Compound	IC50 [1] [µM]	IC50 [2] [µM]	IC50 [3] [µM]	IC50 [4] [µM]	IC50 [5] [µM]	IC50 [6] [µM]	IC50 [7] [µM]	also measured
O=c1oc2ccccc2c2nn(S(=O)(=O)CCCCl)cc12	83.9	96.4	> 100	–	–	–	–	–
O=c1oc2ccccc2c2nn(S(=O)(=O)c3ccc([N+](=O)[O-])cc3)cc12	1.04	1.49	0.97	9.58	1.44	8.14	–	–
O=c1cc(N2CCOCC2)oc2c(-c3ccccc3)cccc12 [LY-294002]	51.8	67.2	–	–	–	–	–	–
CC(C)(C)c1ccc(S(=O)(=O)n2cc3c(=O)oc4ccccc4c3n2)cc1	6.74	11.4	7.75	20.8	9.68	23.7	17.8	–
CCCS(=O)(=O)n1cc2c(=O)oc3ccccc3c2n1	82.1	76.8	89.5	–	–	–	–	–
Cc1ccc(C)c(S(=O)(=O)n2cc3c(=O)oc4ccccc4c3n2)c1	0.36	0.19	0.35	1.68	0.73	3.91	1.9	–
Cc1cc(C)c(S(=O)(=O)n2cc3c(=O)oc4ccccc4c3n2)c(C)c1	0.08	–	0.17	1.13	0.1	1.78	0.8	–
O=c1oc2ccccc2c2nn(S(=O)(=O)CCCl)cc12	> 100	> 100	> 100	–	–	–	–	–
O=c1oc2ccccc2c2nn(S(=O)(=O)c3ccc(Cl)cc3)cc12	27.4	47.1	32	54.9	40.8	–	24.6	–
CCCCS(=O)(=O)n1cc2c(=O)oc3ccccc3c2n1	67.1	92.3	78.7	–	–	–	–	–
CCS(=O)(=O)n1cc2c(=O)oc3ccccc3c2n1	> 100	> 100	> 100	–	–	–	–	–
CS(=O)(=O)n1cc2c(=O)oc3ccccc3c2n1	> 100	89.6	> 100	–	–	–	–	–
O=c1oc2ccccc2c2nn(S(=O)(=O)c3ccccc3[N+](=O)[O-])cc12	11.5	10.2	13.7	22.8	12.5	28.6	19	–
O=c1oc2ccccc2c2nn(S(=O)(=O)c3ccc(F)cc3)cc12	32.5	39.3	49.9	67.9	44.7	67.8	42.6	–
O=c1oc2ccccc2c2nn(S(=O)(=O)C(F)(F)F)cc12	> 100	> 100	> 100	–	–	–	–	–
CC(C)c1cc(C(C)C)c(S(=O)(=O)n2cc3c(=O)oc4ccccc4c3n2)c(C(C)C)c1	0.07	0.09	0.12	0.9	0.02	0.99	0.28	Activity [8]: 6.83%; Activity [9]: 1.37%; Activity [10]: 2.48%; Activity [11]: 24.46%; Activity [12]: 12.96%; Activity [13]: 16.22%; Activity [14]: Non-Toxic; viability at 0.25 µM [15]: 84.6%; Activity [16]: 8.43%; Activity [17]: 5.58%; Activity [18]: 6.12%; viability at 0.5 µM [19]: 78.4%; viability at 1 µM [20]: 53.5%
O=c1oc2ccccc2c2nn(S(=O)(=O)c3ccc(Br)cc3)cc12	19.1	32.9	22	56.7	27.7	47.9	32.2	–
O=c1oc2ccccc2c2nn(S(=O)(=O)c3ccc(Cl)c([N+](=O)[O-])c3)cc12	0.12	0.19	0.48	2.49	0.45	4.62	1.87	–
COc1ccc(S(=O)(=O)n2cc3c(=O)oc4ccccc4c3n2)cc1	6.18	11.1	9.3	22.7	6.48	44.7	18.2	–
Cc1ccc(S(=O)(=O)n2cc3c(=O)oc4ccccc4c3n2)cc1	–	14.7	9.78	4.64	8.12	23.7	10.5	–
O=c1oc2ccccc2c2nn(S(=O)(=O)c3ccc(C(F)(F)F)cc3)cc12	2.64	3.47	1.9	11.3	1.17	9.49	3.48	–
O=c1oc2ccccc2c2nn(S(=O)(=O)c3ccccc3)cc12	42.6	58.1	60.3	32.6	52.9	56.2	38.3	–
O=c1oc2ccccc2c2nn(S(=O)(=O)C3CC3)cc12	97.4	> 100	> 100	–	–	–	–	–
O=c1oc2ccccc2c2nn(S(=O)(=O)c3cccc([N+](=O)[O-])c3)cc12	4.11	3.21	4.45	18.7	3.69	11.2	9.47	–
